From patent US20220133702A1, “CYSTIC FIBROSIS TRANSMEMBRANE CONDUCTANCE REGULATOR MODULATORS FOR TREATING AUTOSOMAL DOMINANT POLYCYSTIC KIDNEY DISEASE” (The Johns Hopkins University, priority 2020, published 2022)

Assays:
cAMP in PN cells = assay: Cyclic AMP enzyme immunoassay in cells; type: cell-based, mouse
Method: FIG. 4A, FIG. 4B, FIG. 4C, FIG. 4D, and FIG. 4E show (FIG. 4A-FIG. 4B) cAMP levels are reduced by VX-809. (FIG. 4A) cAMP levels in mouse tissue were reduced by VX-809. The kidney samples (n=6) analyzed were taken from those depicted in FIG. 1. (FIG. 4B) Confluent PN and PH cells were treated with VX-809 (10 μM) or DMSO for 16 hand then treated with forskolin (100 μM) for 30 min before the cells were harvested for the assay. Columns represent means±SEM. Statistical analysis was performed using a two-tailed Student's t-test. Each set of data is from three individual wells; Note that resting cAMP is greater in PN vs PH cells as previously shown (25). Also note that forskolin caused a large increase in cAMP. A smaller increase occurred with IBMX. However, the increase induced by forskolin alone was similar to that by IBMX plus forskolin. […] (FIG. 4C, FIG. 4D, and FIG. 4E) Adenylyl cyclase expression. (FIG. 4C) Western blot showing the expression of adenylyl cyclase (AC) 6 and AC3 in treated and control PN cells. (FIG. 4D-FIG. 4E) Columns represent means±SEM of the AC3 and AC6 expression. The data were analyzed by non-parametric t-test. The experiment was repeated four times. For all graphs, *P<0.05, **P<0.01, and ***P<0.001;
It has been shown previously in both animal and cell culture models of ADPKD that cells lacking functional PC1 have elevated cAMP levels when compared to normal. To assess the effect of CFTR correctors, cAMP activity was measured in PC1 conditional knockout mouse kidneys and in PN cells that were either left untreated or treated with VX-809. […] Cells were treated with forskolin, which increased cAMP levels drastically (FIG. 4B). It should be noted that VX-809 reduced the forskolin-induced increase in cAMP, indicating a direct action of VX-809 on adenylyl cyclase activity. […] Treating PN cells with forskolin or IBMX (FIG. 4B) increased the cAMP activity by approximately 10-fold.
Cyclic AMP assay. Confluent cells were treated with VX-809 (10 μM) or DMSO for 16 h before being harvested for assay. Cyclic AMP levels were measured with a direct cAMP Enzyme Immunoassay Kit (Sigma, #CA200) according to the manufacturer's protocol. The results are expressed as pmole/ml. Statistical analysis was performed using a two-tailed Student's t-test.

[1] = tested on: Hsp27, Hsp70, and Hsp90 in PN cells; assay: Disappearance of Hsps after translation block with cycloheximide; type: cell-based, mouse; conditions: VX-809 10 μM with cycloheximide 25 μM
Method: FIG. 9A, FIG. 9B, FIG. 9C, FIG. 9D, FIG. 9E, FIG. 9F, FIG. 9G, and FIG. 9H show Hsp27, HSp70, and Hsp90 expression in PN cells treated with VX-809 and/or cycloheximide. (A) Pkd1 null (PN) cells were treated with VX-809 (10 μM) and/or with cycloheximide (25 μM) for indicated time points before being harvested for the assay. (FIG. 9A) Western blot showing expression of Hsp27, Hsp70, and Hsp90 in VX-809-(16 h), cycloheximide-treated, or control PN cells. ((FIG. 9B. (FIG. 9C, and (FIG. 9D) Columns represent averages±standard errors of Hsp27, Hsp70, and Hsp90 expression in cells treated with VX-809 and/or cycloheximide. ((FIG. 9E) Western blot showing expression of Hsp27, Hsp70, and Hsp90 in PN cells treated with VX-809+cycloheximide or control PN cells. ((FIG. 9F, FIG. 9G, and FIG. 9H) Columns represent averages±standard errors of Hsp27, Hsp70, and Hsp90 expression in cells treated only with cycloheximide or in control PN cells. Data were analyzed by non-parametric t-test. The experiments were repeated 3-5 times. *P<0.05, **P<0.01;
To gain more insight into the mechanism whereby VX-809 alters Hsp protein levels, translation was inhibited by using cycloheximide and the disappearance of the three Hsps was monitored. […] Hsp90 was reduced by approximately 25%, and Hsp27 was unchanged.

[2] = tested on: caspase 3 activity in PN cells; assay: EnzChek Caspase-3 assay (apoptosis); type: cell-based, mouse; conditions: 16 h
Method: Apoptosis was measured using the EnzChek Caspase-3 Assay Kit (Invitrogen #E13184). Cells were treated either with VX-809 or with DMSO at indicated concentrations for 16 h or left untreated (control). Both treated and control cells were then harvested, lysed, and assayed as described in the manufacturer's protocol. Reactions were carried out at room temperature, and fluorescence was measured in a fluorescence microplate reader (SpectraMax M3), with excitation at 496 nm and emission detection at 520 nm. Background fluorescence, determined for a no-enzyme control, has been subtracted from each value. Ac-DEVD-CHO was used as an inhibitor control (Inh-cntr1) to confirm the correlation between signal detection and caspase3-like protease activity. Data were analyzed using one-way and ANOVA multiple comparisons. n=4-5. ****P<0.0001;
Apoptosis is associated with the absence of PC1 in ADPKD. To assess whether apoptosis is directly altered by VX-809, caspase 3 activity was monitored in PN cells.

CFTR = assay: Confocal localization of CFTR with ER, Golgi and PM markers; type: cell-based; conditions: treated vs control cells, Pearson's correlation with markers
Source text: FIG. 18A and FIG. 18B show images of confocal microscopy localization studies of CFTR and localization markers in control and treated cells (FIG. 18A) and graphs showing Pearson's correlation coefficient for CFTR and localization markers in control and VX-809 treated cells (FIG. 18B).
The localization of PC2 and CFTR in control cells was compared to the localization of PC2 and CFTR localization in VX-809 treated cells.

Cc1ccc(NC(=O)C2(c3ccc4c(c3)OC(F)(F)O4)CC2)nc1-c1cccc(C(=O)O)c1 [VX-809, lumacaftor]
resting cAMP levels (cAMP in PN cells; 10 μM, 16 h, PN cells, no forskolin): significantly decreased | forskolin-induced increase in cAMP (cAMP in PN cells; 10 μM, 16 h, then forskolin 100 μM 30 min): reduced | forskolin- or IBMX-induced increases in adenylyl cyclase activity (cAMP in PN cells; forskolin in combination with IBMX (data bars 5 and 9, FIG. 4B)): did not affect | phosphodiesterase activity (cAMP in PN cells; inferred from forskolin/IBMX experiment): does not affect | Hsp27 level over the 8-h period [1]: unchanged | Hsp90 reduction over the 8-h period [1]: approximately 25% | Hsp70 levels over the 8-h period ([1]; vs time 0): approximately half the level observed at time 0 | caspase 3 activity [2]: small reduction | CFTR localization (CFTR): statistically significant move of CFTR from the ER to Basolateral and Apical Membrane
